Experiments:
wild radish [1] = experiment: Test D preemergence; format: in vivo, Raphanus raphanistrum; conditions: Raphanus raphanistrum, pre-emergence
Outline: (§1)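 Visual rating vs untreated controls, 0 = no effect, 100 = complete control, taken 7–21 d after treatment. Pre: silt loam soil. Post: potting medium, plants 2–18 cm, 1–4 leaf. Formulation: non-phytotoxic solvent mix + surfactant.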

windgrass = experiment: Test D preemergence; format: in vivo, Apera spica-venti; conditions: Apera spica-venti, pre-emergence
Outline: as §1

green foxtail = experiment: Test D postemergence; format: in vivo, Setaria viridis; conditions: Setaria viridis, post-emergence
Outline: as §1

oilseed rape = experiment: Test D preemergence; format: in vivo, Brassica napus; conditions: Brassica napus, pre-emergence
Outline: as §1

wild mustard [2] = experiment: Test D postemergence; format: in vivo, Sinapis arvensis; conditions: Brassica, post-emergence
Outline: as §1

field violet = experiment: Test D postemergence; format: in vivo, Viola arvensis; conditions: Viola arvensis, post-emergence
Outline: as §1

wild buckwheat = experiment: Test D preemergence; format: in vivo, Polygonum convolvulus; conditions: Fallopia convolvulus, pre-emergence
Outline: as §1

wild radish [3] = experiment: Test D postemergence; format: in vivo, Raphanus raphanistrum; conditions: Raphanus raphanistrum, post-emergence
Outline: as §1

speedwell = experiment: Test D preemergence; format: in vivo, Veronica persica; conditions: Veronica persica, pre-emergence, 16 g ai/ha, scale 0 (no effect) to 100 (complete control), read-out: Plant response rating, Speedwell
Outline: as §1

wild oat = experiment: Test D preemergence; format: in vivo, Avena fatua; conditions: Avena fatua, pre-emergence
Outline: as §1

chamomile = experiment: Test D preemergence; format: in vivo, Matricaria inodora; conditions: Tripleurospermum inodorum, pre-emergence
Description: Seeds of plant species selected from bluegrass (annual bluegrass, Poa annua), blackgrass (Alopecurus myosuroides), canarygrass (littleseed canarygrass, Phalaris minor), chickweed (common chickweed, Stellaria media), galium (catchweed bedstraw, Galium aparine), bromegrass, downy (downy bromegrass, Bromus tectorum), field poppy (Papaver rhoeas), field violet (Viola arvensis), green foxtail (Setaria viridis), deadnettle (henbit deadnettle, Lamium amplexicaule), Italian ryegrass (Lolium multiflorum), kochia (Kochia scoparia), lambsquarters (Chenopodium album), oilseed rape (Brassica napus), pigweed (Amaranthus retroflexus), chamomile (scentless chamomile, Matricaria inodora), Russian thistle (Salsola kali), speedwell (bird's-eye speedwell, Veronica persica), spring barley (Hordeum vulgare), spring wheat (Triticum aestivum), wild buckwheat (Polygonum convolvulus), wild mustard (Sinapis arvensis), wild oat (Avena fatua), wild radish (Raphanus raphanistrum), windgrass (Apera spica-venti), winter barley (Hordeum vulgare), and winter wheat (Triticum aestivum) were planted into a silt loam soil and treated preemergence with test chemicals formulated in a non-phytotoxic solvent mixture which included a surfactant.
At the same time, these species were planted in pots containing Redi-Earth® planting medium (Scotts Company, 14111 Scottslawn Road, Marysville, Ohio 43041) comprising spaghnum peat moss, vermiculite, wetting agent and starter nutrients and treated with postemergence applications of the test chemicals formulated in the same manner. Plants ranged in height from 2 to 18 cm (1- to 4-leaf stage). Treated plants and controls were maintained in a controlled growth environment for 7 to 21 days after which time all species were compared to controls and visually evaluated. Plant response ratings, summarized in Table D, are based on a scale of 0 to 100 where 0 is no effect and 100 is complete control. A dash (-) response means no test result.

wild mustard [4] = experiment: Test D preemergence; format: in vivo, Sinapis arvensis; conditions: Brassica, pre-emergence
Outline: as §1

deadnettle = experiment: Test D postemergence; format: in vivo, Lamium amplexicaule; conditions: Lamium amplexicaule, post-emergence
Outline: as §1

FC(F)(F)c1cnn(-c2ccccc2Oc2ncc(Br)cn2)c1 [Compound 18, 5-bromo-2-[2-[4-(trifluoromethyl)-1H-pyrazol-1-yl]phenoxy]pyrimidine]
pest or weed control at 16 g/ha (wild radish [1]; 16 g ai/ha, scale 0 (no effect) to 100 (complete control), read-out: Plant response rating, Radish, Wild): 100%
pest or weed control at 31 g/ha (wild radish [1]; 31 g ai/ha, scale 0 (no effect) to 100 (complete control), read-out: Plant response rating, Radish, Wild): 100%
pest or weed control at 62 g/ha (wild radish [1]; 62 g ai/ha, scale 0-100, read-out: Plant response rating, Radish, Wild): 100%
pest or weed control at 125 g/ha (wild radish [1]; 125 g ai/ha, scale 0-100, read-out: Plant response rating, Radish, Wild): 100%
pest or weed control at 250 g/ha (wild radish [1]; 250 g ai/ha, scale 0-100, read-out: Plant response rating, Radish, Wild): 100%
pest or weed control at 16 g/ha (windgrass; 16 g ai/ha, scale 0 (no effect) to 100 (complete control), read-out: Plant response rating, Windgrass): 5%
pest or weed control at 31 g/ha (windgrass; 31 g ai/ha, scale 0 (no effect) to 100 (complete control), read-out: Plant response rating, Windgrass): 20%
pest or weed control at 62 g/ha (windgrass; 62 g ai/ha, scale 0-100, read-out: Plant response rating, Windgrass): 75%
pest or weed control at 125 g/ha (windgrass; 125 g ai/ha, scale 0-100, read-out: Plant response rating, Windgrass): 100%
pest or weed control at 250 g/ha (windgrass; 250 g ai/ha, scale 0-100, read-out: Plant response rating, Windgrass): 100%
pest or weed control at 16 g/ha (green foxtail; 16 g ai/ha, scale 0-100, read-out: Plant response rating, Foxtail, Green): 10%
pest or weed control at 31 g/ha (green foxtail; 31 g ai/ha, scale 0 to 100 (0 no effect, 100 complete control), read-out: Plant response rating, Foxtail, Green): 10%
pest or weed control at 62 g/ha (green foxtail; 62 g ai/ha, scale 0 to 100 (0 no effect, 100 complete control), read-out: Plant response rating, Foxtail, Green): 15%
pest or weed control at 125 g/ha (green foxtail; 125 g ai/ha, scale 0 to 100 (0 no effect, 100 complete control), read-out: Plant response rating, Foxtail, Green): 20%
pest or weed control at 250 g/ha (green foxtail; 250 g ai/ha, scale 0 to 100 (0 no effect, 100 complete control), read-out: Plant response rating, Foxtail, Green): 25%
plant injury at 16 g/ha (oilseed rape; 16 g ai/ha, scale 0 (no effect) to 100 (complete control), read-out: Plant response rating, Oilseed Rape): 40%
plant injury at 31 g/ha (oilseed rape; 31 g ai/ha, scale 0-100, read-out: Plant response rating, Oilseed Rape): 30%
plant injury at 62 g/ha (oilseed rape; 62 g ai/ha, scale 0-100, read-out: Plant response rating, Oilseed Rape): 100%
plant injury at 125 g/ha (oilseed rape; 125 g ai/ha, scale 0-100, read-out: Plant response rating, Oilseed Rape): 100%
plant injury at 250 g/ha (oilseed rape; 250 g ai/ha, scale 0-100, read-out: Plant response rating, Oilseed Rape): 100%
pest or weed control at 16 g/ha (wild mustard [2]; 16 g ai/ha, scale 0-100, read-out: Plant response rating, Mustard, Wild): 60%
pest or weed control at 31 g/ha (wild mustard [2]; 31 g ai/ha, scale 0 to 100 (0 no effect, 100 complete control), read-out: Plant response rating, Mustard, Wild): 90%
pest or weed control at 62 g/ha (wild mustard [2]; 62 g ai/ha, scale 0 to 100 (0 no effect, 100 complete control), read-out: Plant response rating, Mustard, Wild): 70%
pest or weed control at 125 g/ha (wild mustard [2]; 125 g ai/ha, scale 0 to 100 (0 no effect, 100 complete control), read-out: Plant response rating, Mustard, Wild): 80%
pest or weed control at 250 g/ha (wild mustard [2]; 250 g ai/ha, scale 0 to 100 (0 no effect, 100 complete control), read-out: Plant response rating, Mustard, Wild): 100%
pest or weed control at 16 g/ha (field violet; 16 g ai/ha, scale 0-100, read-out: Plant response rating, Field Violet): 55%
pest or weed control at 31 g/ha (field violet; 31 g ai/ha, scale 0 to 100 (0 no effect, 100 complete control), read-out: Plant response rating, Field Violet): 80%
pest or weed control at 62 g/ha (field violet; 62 g ai/ha, scale 0 to 100 (0 no effect, 100 complete control), read-out: Plant response rating, Field Violet): 65%
pest or weed control at 125 g/ha (field violet; 125 g ai/ha, scale 0 to 100 (0 no effect, 100 complete control), read-out: Plant response rating, Field Violet): 80%
pest or weed control at 250 g/ha (field violet; 250 g ai/ha, scale 0 to 100 (0 no effect, 100 complete control), read-out: Plant response rating, Field Violet): 90%
pest or weed control at 16 g/ha (wild buckwheat; 16 g ai/ha, scale 0 (no effect) to 100 (complete control), read-out: Plant response rating, Buckwheat, Wild): 10%
pest or weed control at 31 g/ha (wild buckwheat; 31 g ai/ha, scale 0-100, read-out: Plant response rating, Buckwheat, Wild): 70%
pest or weed control at 62 g/ha (wild buckwheat; 62 g ai/ha, scale 0-100, read-out: Plant response rating, Buckwheat, Wild): 80%
pest or weed control at 125 g/ha (wild buckwheat; 125 g ai/ha, scale 0-100, read-out: Plant response rating, Buckwheat, Wild): 100%
pest or weed control at 250 g/ha (wild buckwheat; 250 g ai/ha, scale 0-100, read-out: Plant response rating, Buckwheat, Wild): 100%
pest or weed control at 16 g/ha (wild radish [3]; 16 g ai/ha, scale 0-100, read-out: Plant response rating, Radish, Wild): 95%
pest or weed control at 31 g/ha (wild radish [3]; 31 g ai/ha, scale 0 to 100 (0 no effect, 100 complete control), read-out: Plant response rating, Radish, Wild): 90%
pest or weed control at 62 g/ha (wild radish [3]; 62 g ai/ha, scale 0 to 100 (0 no effect, 100 complete control), read-out: Plant response rating, Radish, Wild): 100%
pest or weed control at 125 g/ha (wild radish [3]; 125 g ai/ha, scale 0 to 100 (0 no effect, 100 complete control), read-out: Plant response rating, Radish, Wild): 100%
pest or weed control at 250 g/ha (wild radish [3]; 250 g ai/ha, scale 0 to 100 (0 no effect, 100 complete control), read-out: Plant response rating, Radish, Wild): 100%
pest or weed control at 16 g/ha (speedwell): 50%
pest or weed control at 16 g/ha (wild oat; 16 g ai/ha, scale 0 (no effect) to 100 (complete control), read-out: Plant response rating, Oat, Wild): 0%
pest or weed control at 31 g/ha (wild oat; 31 g ai/ha, scale 0-100, read-out: Plant response rating, Oat, Wild): 0%
pest or weed control at 62 g/ha (wild oat; 62 g ai/ha, scale 0-100, read-out: Plant response rating, Oat, Wild): 0%
pest or weed control at 125 g/ha (wild oat; 125 g ai/ha, scale 0-100, read-out: Plant response rating, Oat, Wild): 5%
pest or weed control at 250 g/ha (wild oat; 250 g ai/ha, scale 0-100, read-out: Plant response rating, Oat, Wild): 30%
pest or weed control at 16 g/ha (chamomile; 16 g ai/ha, scale 0 (no effect) to 100 (complete control), read-out: Plant response rating, Chamomile): 5%
pest or weed control at 31 g/ha (chamomile; 31 g ai/ha, scale 0-100, read-out: Plant response rating, Chamomile): 5%
pest or weed control at 125 g/ha (chamomile; 125 g ai/ha, scale 0-100, read-out: Plant response rating, Chamomile): 50%
pest or weed control at 250 g/ha (chamomile; 250 g ai/ha, scale 0-100, read-out: Plant response rating, Chamomile): 55%
pest or weed control at 16 g/ha (wild mustard [4]; 16 g ai/ha, scale 0 (no effect) to 100 (complete control), read-out: Plant response rating, Mustard, Wild): 80%
pest or weed control at 31 g/ha (wild mustard [4]; 31 g ai/ha, scale 0-100, read-out: Plant response rating, Mustard, Wild): 85%
pest or weed control at 62 g/ha (wild mustard [4]; 62 g ai/ha, scale 0-100, read-out: Plant response rating, Mustard, Wild): 100%
pest or weed control at 125 g/ha (wild mustard [4]; 125 g ai/ha, scale 0-100, read-out: Plant response rating, Mustard, Wild): 90%
pest or weed control at 250 g/ha (wild mustard [4]; 250 g ai/ha, scale 0-100, read-out: Plant response rating, Mustard, Wild): 100%
pest or weed control at 16 g/ha (deadnettle; 16 g ai/ha, scale 0-100, read-out: Plant response rating, Deadnettle): 50%
pest or weed control at 31 g/ha (deadnettle; 31 g ai/ha, scale 0 to 100 (0 no effect, 100 complete control), read-out: Plant response rating, Deadnettle): 65%
pest or weed control at 62 g/ha (deadnettle; 62 g ai/ha, scale 0 to 100 (0 no effect, 100 complete control), read-out: Plant response rating, Deadnettle): 75%
pest or weed control at 125 g/ha (deadnettle; 125 g ai/ha, scale 0 to 100 (0 no effect, 100 complete control), read-out: Plant response rating, Deadnettle): 90%
pest or weed control at 250 g/ha (deadnettle; 250 g ai/ha, scale 0 to 100 (0 no effect, 100 complete control), read-out: Plant response rating, Deadnettle): 100%

Source: patent US9695155B2, “Herbicidal substituted pyrimidinyloxy benzene compounds” (E. I. DU PONT DE NEMOURS AND COMPANY, priority 2013, dated 2017)
